Measured values from patent US10610522B2, “Methods for retreating irritable bowel syndrome (IBS)” (Salix Pharmaceuticals, Inc., priority 2014, dated 2020).

Assays:
[1] = system: d-IBS; assay: IBS-QOL questionnaire in d-IBS patients, rifaximin 550 mg BID vs placebo; type: in vivo, human; settings: Week 4
Description: Both groups received placebo for an additional 14 days after the initial 2-week treatment. Quality of life was assessed with the 34-item IBS-QOL questionnaire at baseline and 4 weeks after initiating treatment. Each item was scored on a 5-point scale (1=not at all; 2=slightly; 3=moderately; 4=quite a bit; and 5=extremely or a great deal). Results for composite and subscale scores were converted to a scale ranging from 0 to 100, with higher scores indicating better QOL.
Following a 2-week initial treatment period, both groups of patients received placebo for an additional 14 days. Quality of life was assessed via the 34-item IBS-QOL questionnaire at baseline and 4 weeks after initiating treatment. Each item was scored on a 5-point scale (1=not at all; 2=slightly; 3=moderately; 4=quite a bit; 5=extremely or a great deal); results for composite and subscale scores were converted to a scale ranging from 0 to 100, with higher scores indicating better QOL.

[2] = system: non-constipation IBS; assay: Combined first and second studies (TARGET 1 and 2): pooled efficacy, sustained response and recurrence; type: in vivo, human; parameters: Responders: abdominal pain reduction of 2 point in median / Responders: abdominal pain reduction of 3 point in median / Responders: abdominal pain reduction of 1 point in weekly median / Responders: abdominal pain reduction of 1 point in weekly mean / Responders: abdominal pain reduction of 2 point in mean: concentration or dose not given beside the values
Description: A measure of efficacy is based on subjects' answers to the Weekly Subject Global Assessment (SGA) questions over the study duration in relation to their IBS symptoms.
An evaluation of the enrolled subjects was carried out after the Primary Evaluation Period in the study described in Examples 5-7. […] Subjects with no recurrence are defined as having a stool consistency score of less than 4, abdominal pain reduced by at least 30 percent or both.

[3] = target: CYP3A4 (Homo sapiens, UniProt P08684); assay: In vitro cytochrome P450 inhibition; type: biochemical; settings: 2 to 200 ng/mL
[4] = rifaximin 1100 mg/d 14 d (n = 191)
[5] = Combined, at least 2 weeks during PEP
[6] = Rolling 2-5 Weeks, Rifaximin (N = 624), n (%)
[7] = Rolling 3-6 Weeks, Rifaximin (N = 624), n (%)
[8] = Rolling 4-7 Weeks, Rifaximin (N = 624), n (%)
[9] = Rolling 4 Weeks: 4-7 Weeks, N = 624
[10] = Rolling 4 Weeks: 5-8 Weeks, N = 624
[11] = Rolling 4 Weeks: 6-9 Weeks, N = 624
[12] = Rolling 4 Weeks: 7-10 Weeks, N = 624
[13] = Rolling 4 Weeks: 8-11 Weeks, N = 624
[14] = Rolling 4 Weeks: 9-12 Weeks, N = 624
[15] = Rolling 5-8 Weeks, Rifaximin (N = 624), n (%)
[16] = Rolling 6-9 Weeks, Rifaximin (N = 624), n (%)
[17] = Rolling 7-10 Weeks, Rifaximin (N = 624), n (%)
[18] = Rolling 8-11 Weeks, Rifaximin (N = 624), n (%)
[19] = Rolling 9-12 Weeks, Rifaximin (N = 624), n (%)

CYP3A4, sequence (P08684 whole entry): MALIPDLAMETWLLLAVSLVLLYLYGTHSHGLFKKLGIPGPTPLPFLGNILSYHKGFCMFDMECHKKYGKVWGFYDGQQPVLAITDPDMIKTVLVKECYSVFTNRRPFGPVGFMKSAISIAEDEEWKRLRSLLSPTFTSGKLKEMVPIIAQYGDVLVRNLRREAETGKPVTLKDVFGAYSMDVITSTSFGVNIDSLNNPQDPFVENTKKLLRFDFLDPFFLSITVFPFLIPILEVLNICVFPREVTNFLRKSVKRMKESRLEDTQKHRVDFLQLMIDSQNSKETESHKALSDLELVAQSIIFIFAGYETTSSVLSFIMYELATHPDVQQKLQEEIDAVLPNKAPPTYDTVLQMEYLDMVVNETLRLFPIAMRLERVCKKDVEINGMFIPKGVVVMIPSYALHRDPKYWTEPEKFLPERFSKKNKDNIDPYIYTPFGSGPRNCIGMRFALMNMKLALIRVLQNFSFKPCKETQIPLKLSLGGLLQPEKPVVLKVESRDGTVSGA

## CO[C@H]1/C=C/O[C@@]2(C)Oc3c(C)c(O)c4c(O)c(c5c(nc6cc(C)ccn65)c4c3C2=O)NC(=O)/C(C)=C\C=C\[C@H](C)[C@H](O)[C@@H](C)[C@@H](O)[C@@H](C)[C@H](OC(C)=O)[C@@H]1C [Rifaximin, (2S,16Z,18E,20S,21S,22R,23R,24R,25S,26S,27S,28E)-5,6,21,23,25 Pentahydroxy-27-methoxy-2,4,11,16,20,22,24,26-octamethyl-2,7-(epoxypentadeca-(1,11,13)trienimino) benzofuro (4,5-e) pyrido(1,2-a) benzimidazole-1,15(2H)-dione,25-acetate]
[1]; 1100 mg/d
  Improvement with rifaximin over placebo, IBS-QOL Body image: 37.4%
  Improvement with rifaximin over placebo, IBS-QOL Dysphoria: 25.3%
  Improvement with rifaximin over placebo, IBS-QOL Food avoidance: 22.1%
  Improvement with rifaximin over placebo, IBS-QOL Health worry: 30.6%
  Improvement with rifaximin over placebo, IBS-QOL Interference with activity: 22.2%
  Improvement with rifaximin over placebo, IBS-QOL Overall score: 28.7%
  Improvement with rifaximin over placebo, IBS-QOL Relationship: 39.5%
  Improvement with rifaximin over placebo, IBS-QOL Sexual: 24.9%
  Improvement with rifaximin over placebo, IBS-QOL Social reaction: 31.6%
[1]; [4]
  Mean change from baseline in IBS-QOL, Body image: 20.1
  Mean change from baseline in IBS-QOL, Dysphoria: 24.8
  Mean change from baseline in IBS-QOL, Food avoidance: 25.0
  Mean change from baseline in IBS-QOL, Health worry: 16.0
  Mean change from baseline in IBS-QOL, Interference with activity: 22.2
  Mean change from baseline in IBS-QOL, Relationship: 14.9
  Mean change from baseline in IBS-QOL, Sexual: 13.6
  Mean change from baseline in IBS-QOL, Social reaction: 17.3
[1]; rifaximin 1100 mg/d 14 d (n = 191), 0-100 scale
  Mean change from baseline in IBS-QOL, Overall score: 20.4
[2]; Combined
  IBS symptom of bloating: adequate relief at least 2 out of 4 weeks during weeks 3 through 6 (weekly question): 40%
[2]; Combined, 550 mg TID 14 d
  Global IBS symptoms: adequate relief at least 2 out of 4 weeks during weeks 3 through 6 (weekly question): 32% vs 41%
[2]; [5]
  Responders: abdominal pain reduction of 1 point in weekly mean: 52%
  Responders: abdominal pain reduction of 1 point in weekly median: 63%
  Responders: abdominal pain reduction of 2 point in mean: 25%
  Responders: abdominal pain reduction of 2 point in median: 39%
  Responders: abdominal pain reduction of 3 point in mean: 6% vs 7%
  Responders: abdominal pain reduction of 3 point in median: 21%
  Responders: daily abdominal pain < 2 for at least 50% of days in a week: 39%
  Responders: overall reduction of mean weekly abdominal pain by >= 25%: 57%
  Responders: overall reduction of mean weekly abdominal pain by >= 50%: 35%
  Responders: overall reduction of mean weekly abdominal pain by >= 75%: 14%
  Responders: overall reduction of median weekly abdominal pain by >= 25%: 62%
  Responders: overall reduction of median weekly abdominal pain by >= 50%: 44%
  Responders: overall reduction of median weekly abdominal pain by >= 75%: 21%
[2]; N = 624
  Sustained Durable Response (No Recurrence), Abdominal Pain & Stool Consistency: % of subjects: (33.2%)
  Sustained Durable Response (No Recurrence), Abdominal Pain & Stool Consistency: number of subjects: 207
  Sustained Durable Response (No Recurrence), Abdominal Pain: % of subjects: (35.7%)
  Sustained Durable Response (No Recurrence), Abdominal Pain: number of subjects: 223
  Sustained Durable Response (No Recurrence), Stool Consistency: % of subjects: (68.9%)
  Sustained Durable Response (No Recurrence), Stool Consistency: number of subjects: 430
[2]; Rifaximin (N = 624), n (%)
  Abdominal Pain or Stool Consistency, Sustained Durable Response: 180 (28.8%)
[2]; [6]
  Abdominal Pain or Stool Consistency, No Recurrence: 286 (45.8%)
  Abdominal Pain or Stool Consistency, Recurrence: 12 (1.9%)
[2]; [7]
  Abdominal Pain or Stool Consistency, No Recurrence: 274 (43.9%)
  Abdominal Pain or Stool Consistency, Recurrence: 23 (3.7%)
[2]; [8]
  Abdominal Pain or Stool Consistency, No Recurrence: 251 (40.2%)
  Abdominal Pain or Stool Consistency, Recurrence: 17 (2.7%)
[2]; [9]
  No Recurrence, Abdominal Pain & Stool Consistency: % of subjects: (48.2%)
  No Recurrence, Abdominal Pain & Stool Consistency: number of subjects: 301
  No Recurrence, Abdominal Pain: % of subjects: (51.9%)
  No Recurrence, Abdominal Pain: number of subjects: 324
  No Recurrence, Stool Consistency: % of subjects: (78.8%)
  No Recurrence, Stool Consistency: number of subjects: 492
  Recurrence, Abdominal Pain & Stool Consistency: % of subjects: 3.7%
  Recurrence, Abdominal Pain & Stool Consistency: number of subjects: 23
  Recurrence, Abdominal Pain: % of subjects: 3.8%
  Recurrence, Abdominal Pain: number of subjects: 24
  Recurrence, Stool Consistency: % of subjects: 1.3%
  Recurrence, Stool Consistency: number of subjects: 8
[2]; [10]
  No Recurrence, Abdominal Pain & Stool Consistency: % of subjects: (44.6%)
  No Recurrence, Abdominal Pain & Stool Consistency: number of subjects: 278
  No Recurrence, Abdominal Pain: % of subjects: (48.1%)
  No Recurrence, Abdominal Pain: number of subjects: 300
  No Recurrence, Stool Consistency: % of subjects: (77.6%)
  No Recurrence, Stool Consistency: number of subjects: 484
  Recurrence, Abdominal Pain & Stool Consistency: % of subjects: 3.2%
  Recurrence, Abdominal Pain & Stool Consistency: number of subjects: 20
  Recurrence, Abdominal Pain: % of subjects: 3.0%
  Recurrence, Abdominal Pain: number of subjects: 19
  Recurrence, Stool Consistency: % of subjects: 2.1%
  Recurrence, Stool Consistency: number of subjects: 13
[2]; [11]
  No Recurrence, Abdominal Pain & Stool Consistency: % of subjects: (41.3%)
  No Recurrence, Abdominal Pain & Stool Consistency: number of subjects: 258
  No Recurrence, Abdominal Pain: % of subjects: (45.0%)
  No Recurrence, Abdominal Pain: number of subjects: 281
  No Recurrence, Stool Consistency: % of subjects: (75.5%)
  No Recurrence, Stool Consistency: number of subjects: 471
  Recurrence, Abdominal Pain & Stool Consistency: % of subjects: 2.2%
  Recurrence, Abdominal Pain & Stool Consistency: number of subjects: 14
  Recurrence, Abdominal Pain: % of subjects: 2.4%
  Recurrence, Abdominal Pain: number of subjects: 15
  Recurrence, Stool Consistency: % of subjects: 2.6%
  Recurrence, Stool Consistency: number of subjects: 16
[2]; [12]
  No Recurrence, Abdominal Pain & Stool Consistency: % of subjects: (39.1%)
  No Recurrence, Abdominal Pain & Stool Consistency: number of subjects: 244
  No Recurrence, Abdominal Pain: % of subjects: (42.6%)
  No Recurrence, Abdominal Pain: number of subjects: 266
  No Recurrence, Stool Consistency: % of subjects: (72.9%)
  No Recurrence, Stool Consistency: number of subjects: 455
  Recurrence, Abdominal Pain & Stool Consistency: % of subjects: 1.8%
  Recurrence, Abdominal Pain & Stool Consistency: number of subjects: 11
  Recurrence, Abdominal Pain: % of subjects: 2.4%
  Recurrence, Abdominal Pain: number of subjects: 15
  Recurrence, Stool Consistency: % of subjects: 1.4%
  Recurrence, Stool Consistency: number of subjects: 9
[2]; [13]
  No Recurrence, Abdominal Pain & Stool Consistency: % of subjects: (37.3%)
  No Recurrence, Abdominal Pain & Stool Consistency: number of subjects: 233
  No Recurrence, Abdominal Pain: % of subjects: (40.2%)
  No Recurrence, Abdominal Pain: number of subjects: 251
  No Recurrence, Stool Consistency: % of subjects: (71.5%)
  No Recurrence, Stool Consistency: number of subjects: 446
  Recurrence, Abdominal Pain & Stool Consistency: % of subjects: 2.2%
  Recurrence, Abdominal Pain & Stool Consistency: number of subjects: 14
  Recurrence, Abdominal Pain: % of subjects: 2.2%
  Recurrence, Abdominal Pain: number of subjects: 14
  Recurrence, Stool Consistency: % of subjects: 0.5%
  Recurrence, Stool Consistency: number of subjects: 3
[2]; [14]
  No Recurrence, Abdominal Pain & Stool Consistency: % of subjects: (35.1%)
  No Recurrence, Abdominal Pain & Stool Consistency: number of subjects: 219
  No Recurrence, Abdominal Pain: % of subjects: (38.0%)
  No Recurrence, Abdominal Pain: number of subjects: 237
  No Recurrence, Stool Consistency: % of subjects: (71.0%)
  No Recurrence, Stool Consistency: number of subjects: 443
  Recurrence, Abdominal Pain & Stool Consistency: % of subjects: 1.9%
  Recurrence, Abdominal Pain & Stool Consistency: number of subjects: 12
  Recurrence, Abdominal Pain: % of subjects: 2.2%
  Recurrence, Abdominal Pain: number of subjects: 14
  Recurrence, Stool Consistency: % of subjects: 2.1%
  Recurrence, Stool Consistency: number of subjects: 13
[2]; [15]
  Abdominal Pain or Stool Consistency, No Recurrence: 234 (37.5%)
  Abdominal Pain or Stool Consistency, Recurrence: 16 (2.6%)
[2]; [16]
  Abdominal Pain or Stool Consistency, No Recurrence: 218 (34.9%)
  Abdominal Pain or Stool Consistency, Recurrence: 10 (1.6%)
[2]; [17]
  Abdominal Pain or Stool Consistency, No Recurrence: 208 (33.3%)
  Abdominal Pain or Stool Consistency, Recurrence: 10 (1.6%)
[2]; [18]
  Abdominal Pain or Stool Consistency, No Recurrence: 198 (31.7%)
  Abdominal Pain or Stool Consistency, Recurrence: 8 (1.3%)
[2]; [19]
  Abdominal Pain or Stool Consistency, No Recurrence: 190 (30.4%)
  Abdominal Pain or Stool Consistency, Recurrence: 10 (1.6%)
[3]
  Inhibition of CYP3A4: does not inhibit
